Measurements published in US11883509B2, “Pharmaceutical composition for inhalation administration for labeling pulmonary tumorous lesion, containing fluorescent contrast agent as active ingredient” (KOREA UNIVERSITY RESEARCH AND BUSINESS FOUNDATION, priority 2018, dated 2024).
Values joined by “and” are separate entries in the source; they are usually repeats but may differ in a detail not shown here. Identical values can stand only once.

What was measured:
Type in all cases: in vivo
VX2 carcinoma [1] = assay: Identification of boundary of cancer tissue in lung tumor-induced rabbit model through airway administration of ICG; settings: ICG 0.75 mg/mL inhaled 4 minutes
Procedure: (§1) In Example 1, it was confirmed that the ICG administered via the airway through respiration stained the lung tissue quickly and emitted strong fluorescence with little effect on other organs. Then, it was investigated whether the airway administration of ICG can be used to distinguish cancer tissue from normal tissue by staining only the normal tissue in a lung tumor animal model. Specifically, a lung tumor-induced rabbit model was prepared as shown in FIG. 2 by transplanting VX2 carcinoma into the lungs of a rabbit. The rabbit was made to inhale ICG (0.75 mg/mL) for 4 minutes by connecting a nebulizer to a ventilator. 1 hour later, the chest of the rabbit was cut open and the fluorescence images of the lung were acquired using a NIR imaging system. After conducting surgery for pulmonary nodules, the excised lung tissue was prepared into 10 μm-thick cryosections and optical images were acquired using a NIR microscope. Then, the lung tissue was stained with H&E, and the boundary of cancer tissue was observed histologically.

[2] = Distribution of ICG administered to normal mice via airway and fluorescence duration
Procedure: It was investigated, when Indocyanine green (ICG) is administered via the airway of a subject through respiration, whether the lungs are stained properly, organs other than the lungs are also affected, how long the staining lasts, etc. More specifically, 0.25 mg/mL ICG were administered to normal mice for 10 minutes through respiration using the SciReq nebulizer, as shown in FIG. 1a. The, the ICG (2.5 mg/kg)-administered mice were sacrificed 10 minutes, 1 hour, 3 hours, 6 hours and 24 hours later. After extracting the brain, lung, liver, kidney and spleen, fluorescence images were acquired and fluorescence signal intensity was measured using a fluorescence imaging system.

VX2 carcinoma [3] = assay: Cancer detection rate (TMDE) in lung tumor-induced rabbit model depending on concentration of administered ICG
Procedure: as §1
It was investigated whether the desired effect can be achieved with a less amount of ICG administered by airway administration as compared to intravenous administration of ICG. Specifically, after administering ICG at different concentrations (0.1 mg/kg, 0.25 mg/kg, 0.5 mg/kg, 1 mg/kg) in the same manner as in Example 2 to the lung tumor-induced rabbit model of Example 2, the fluorescence images of the lung were acquired and TMDE (tumor margin detection efficiency) depending on the ICG concentration was compared.

lung cancer cells = assay: Distribution of inhaled ICG in mouse lung cancer model with GFP-labeled lung cancer cells; settings: fluorescence imaging
Description: In order to investigate the boundary of cancer cells and ICG distribution more accurately, a mouse lung cancer model was established by labeling lung cancer cells with GFP and the distribution of ICG administered through respiration was investigated by fluorescence imaging.

VX2 carcinoma [4] = assay: Cancer detection rate (TMDE) in lung tumor-induced rabbit model depending on administration route of ICG; settings: 0.25 mg/kg ICG through respiration vs 5 mg/kg intravenous, TMDE at 1, 3, 6, 24 hours
Procedure: as §1, with “Then, the lung tissue was stained with H&E, and the boundary of cancer tissue was observed histologically.” left out
Specifically, after extracting the lungs from a lung tumor-induced rabbit model to which 0.25 mg/kg ICG was administered through respiration in the same manner as in Example 2 and a lung tumor-induced rabbit model to which 5 mg/kg ICG was administered intravenously, fluorescence images were acquired and TMDE was quantitated 1 hour later, 3 hours later, 6 hours later and 24 hours later using a NIR imaging system.

lung tumor = assay: Visualization of lesion in human lungs through administration of ICG via bronchus
Procedure: As confirmed in Examples 2-4, remarkably high cancer detection rate could be achieved through airway administration of ICG for lung tumor even with a less amount of ICG. […] Specifically, the lobar bronchi of six lung tumor patients who received surgery for pulmonary nodules in Korea University Guro Hospital were connected with tubes and 0.75 mg/mL ICG was administered for 4 minutes using a nebulizer. Then, fluorescence images were acquired using a NIR imaging system.

[5] = airway administration by nebulizer, ICG 2.5 mg/kg
[6] = airway administration, extracted organs, fluorescence imaging
[7] = six lung tumor patients, 0.75 mg/mL ICG via lobar bronchus 4 minutes

CC1(C)C(/C=C/C=C/C=C/C=C2\N(CCCCS(=O)(=O)O)c3ccc4ccccc4c3C2(C)C)=[N+](CCCCS(=O)(=O)[O-])c2ccc3ccccc3c21 [ICG, Indocyanine green]
boundary of cancer tissue identified by ICG versus H&E histology (VX2 carcinoma [1]): consistent with the histologically observed boundary of cancer | diameter of the cancer tissue negatively contrasted by ICG (VX2 carcinoma [1]; imaged 1 hour later): 2 mm | distribution of inhaled ICG in cancer tissue versus normal tissue (VX2 carcinoma [1]; imaged 1 hour later): not distributed in the cancer tissue but stains the normal tissue only | time after administration at which fluorescence is emitted in the lungs [2, 5]: ≤ 10 min | time after administration at which fluorescence signals could still be detected [2, 5]: ≥ 24 h | time of peak fluorescence signals after administration [2, 5]: 1 h | distribution of ICG in the kidney and spleen [2, 6]: almost nonexistent | distribution of ICG in the lung [2, 6]: present at high concentrations particularly in the lung | ICG concentration needed for accurate detection of the boundary of lung tumor (VX2 carcinoma [3]; airway administration): ≥ 0.25 mg/kg | detection of boundary of cancer tissue (VX2 carcinoma [3]; airway administration of ICG at 0.1, 0.25, 0.5 and 1 mg/kg): could be detected effectively | lung tumor detection rate (TMDE) versus ICG concentration (VX2 carcinoma [3]; airway administration, 0.1-1 mg/kg): increased depending on the concentration of ICG | distribution of ICG administered through respiration (lung cancer cells): distributed through the lungs except for the lung cancer cells | cancer detection rate (TMDE) of respiration administration relative to intravenous administration (VX2 carcinoma [4]): ≥ 2.5 times | TMDE (lung tumor; six lung tumor patients (Case 1-6, one value per patient), 0.75 mg/mL ICG via lobar bronchus 4 minutes by nebulizer): 2.8 (2×) and 2.7 and 3.3 and 2.6 and 3.4 | boundary between cancer tissue and normal tissue versus pathology (lung tumor; [7]): consistent with the pathological outcome for each patient | distribution of inhaled ICG in human lungs (lung tumor; [7]): distributed only in the normal tissue of the lungs
